Results taken from BindingDB's records for doi:10.1074/jbc.M803947200 (Universit&Eacute, 2008).

Biological target: Stromal cell-derived factor 1 (Homo sapiens, UniProt P48061)
Assay: Tryptophan Fluorescence Assay
Conditions: 20 °C
Source text: Binding of chalcone 4 and chlcone 1 to CSCL12 was examined by monitoring changes in the emission intensity of intrinsic Trp fluorescence of the chemokine.

Sequence of Stromal cell-derived factor 1 (P48061 whole entry): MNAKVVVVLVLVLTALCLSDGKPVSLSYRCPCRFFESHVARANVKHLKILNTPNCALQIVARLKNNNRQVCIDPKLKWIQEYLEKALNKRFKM

An IC50 greater than 500 µM was found for O=C(/C=C/c1ccccc1)c1ccccc1 [Chalcone, 13] in this work.
An IC50 of 150 µM was found for COc1cc(/C=C/C(=O)c2ccc(Cl)cc2)ccc1O [1-(4-Chloro-phenyl)-3-(4-hydroxy-3-methoxy-phenyl)-propenone] in this work.
An IC50 of 24.2 µM was found for O=C(/C=C/c1ccc(O)cc1)c1ccccc1O [(E)-1-(2-hydroxyphenyl)-3-(4-hydroxyphenyl)prop-2-en-1-one] in this work.
An IC50 of 15 µM was found for O=C(/C=C/c1ccc(O)cc1)c1ccccc1 [Chalcone 2] in this work.
